# Measured values taken from US10443054B2, “Methods for identifying and treating invasive/metastatic breast cancers” (Massachusetts Institute of Technology, priority 2016, dated 2019).
# Tests used:
# MDA-MB-231 cells = experiment: Inverted invasion assay through matrigel towards EGF; conditions: nuclei of invading cells above 40 μm
# LM2 cells = experiment: Extravasation (experimental lung) metastasis assay, tail vein injection; type: in vivo, mice; conditions: LM2 cells stably expressing shRNA injected via tail vein, 28 days; vs Ctrl-shRNA
# Experimental: For the experimental lung metastasis assay, 5×10^4 cells in 100 μl of Hank's Balanced Salt Solution were injected into the lateral tail vein of 6- to 8-week-old female NOD/SCID/IL2RV-null mice. The mice were sacrificed 28 days post-injection and lungs were inflated with 3.8% formaldehyde imaged with a fluorescence microscope and subsequently fixed overnight with 3.8% formaldehyde. ZsGreen-positive foci were counted in the left pulmonary lobe using ImageJ and counts were manually curated as needed.
compound,measurement,setting,value
"Cc1ccc(NC(=O)c2ccc(CN3CCN(C)CC3)cc2)cc1Nc1nccc(-c2cccnc2)n1 [ST1571, STI-571]",breast cancer cell invasiveness towards EGF,"MDA-MB-231 cells; MDA-MB-231, Dasatinib 10 nM, STI571 10 μM, 72 hours vs DMSO",impaired
"CNC(=O)[C@H](Cc1c[nH]c2ccccc12)NC(=O)[C@@H](CC(=O)NO)CC(C)C [MMP inhibitor, GM6001]",invasion of Lpd overexpressing cells,"MDA-MB-231 cells; MDA-MB-231 expressing GFP-Lpd, 10 μM GM6001 vs DMSO",reduced invasion
same,invasion of GFP expressing control cells,"MDA-MB-231 cells; MDA-MB-231 expressing GFP, 10 μM GM6001 vs DMSO",reduced invasion
"Lpd-shRNA2: shRNA targeting human Lpd, TTCCCATACTTTGCAATGCGG",number of ZsGreen-positive metastatic foci in the left pulmonary lobe,LM2 cells,not significant
